{
  "source": "patent US20250288583A1",
  "about": "“Treatment of Mucus Hypersecretion” (priority 2024, published 2025)",
  "key": {"[1]": {"details": "human volunteers; cited from earlier work"}, "[2]": {"test_system": "goblet cells of human nasal epithelium", "details": "Liu et al., 2017; cited from earlier work"}, "hTRPM8 channel": {"molecular_target": "T1, hTRPM8 channel (Homo sapiens, UniProt Q7Z2W7)", "T1 construct": "host or cells: CHO cells", "T1 sequence (Q7Z2W7 whole entry)": "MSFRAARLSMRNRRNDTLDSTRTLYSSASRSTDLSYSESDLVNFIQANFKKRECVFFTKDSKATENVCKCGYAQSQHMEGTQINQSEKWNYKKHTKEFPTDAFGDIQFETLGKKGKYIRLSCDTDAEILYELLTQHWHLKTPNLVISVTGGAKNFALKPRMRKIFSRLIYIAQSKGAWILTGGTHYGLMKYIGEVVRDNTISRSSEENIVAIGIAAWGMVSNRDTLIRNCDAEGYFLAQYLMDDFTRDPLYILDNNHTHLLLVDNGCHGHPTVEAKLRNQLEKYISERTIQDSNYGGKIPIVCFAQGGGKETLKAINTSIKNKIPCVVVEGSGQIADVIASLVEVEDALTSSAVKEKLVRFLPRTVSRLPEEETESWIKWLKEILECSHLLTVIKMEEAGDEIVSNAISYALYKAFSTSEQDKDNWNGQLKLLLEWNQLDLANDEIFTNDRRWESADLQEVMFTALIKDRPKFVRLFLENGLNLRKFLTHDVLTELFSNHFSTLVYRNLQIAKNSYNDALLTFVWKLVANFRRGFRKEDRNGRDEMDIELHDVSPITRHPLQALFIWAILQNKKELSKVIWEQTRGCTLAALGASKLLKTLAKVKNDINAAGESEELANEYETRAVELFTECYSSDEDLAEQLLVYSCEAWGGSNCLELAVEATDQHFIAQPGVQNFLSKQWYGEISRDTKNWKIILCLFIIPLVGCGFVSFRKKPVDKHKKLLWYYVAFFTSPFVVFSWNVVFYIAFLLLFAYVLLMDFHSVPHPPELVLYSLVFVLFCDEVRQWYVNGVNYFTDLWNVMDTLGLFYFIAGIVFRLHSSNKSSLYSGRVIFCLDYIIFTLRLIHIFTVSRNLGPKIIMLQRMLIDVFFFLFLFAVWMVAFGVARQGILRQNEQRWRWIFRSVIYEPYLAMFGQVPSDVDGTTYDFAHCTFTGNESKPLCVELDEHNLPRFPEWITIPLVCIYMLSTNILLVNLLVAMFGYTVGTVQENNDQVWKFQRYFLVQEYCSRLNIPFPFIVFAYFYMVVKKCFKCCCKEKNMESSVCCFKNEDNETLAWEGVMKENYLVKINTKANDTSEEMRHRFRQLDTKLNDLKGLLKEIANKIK", "experiment": "TRPM8 receptor assay, calcium entry (Fluo-8, FLIPR) in transfected CHO cells", "assay_type": "cell-based", "details": "FIG. 5", "description": "FIG. 4. Agonist activities of TRPM8 analogs. […] The relative fluorescence (RF) unit on the ordinate represents calcium entry into transfected cells. […] The structures of these compounds are in Table 4.\nThe applicant has synthesized and examined a series of p-menthanecarboxamides conjugated to amino acid esters. […] This class of molecules is called N-alkylcarbonyl-amino acid esters. GlyOiPr is a p-menthanecarboxamide conjugate of glycine isopropyl (iPr) ester. It is similar in structure to WS-5, a cooling agent used as a food additive. WS-5 is the p-menthane-glycine ethyl (Et) ester, or GlyOEt. […] These in vitro effects were measured in CHO cells transfected with the hTRPM8 channel. Receptor activity was quantified using a Fluo-8 calcium kit and a Fluorescence Imaging Plate Reader ([…]™)."}, "nasal cavity": {"test_system": "nasal cavity", "experiment": "Nebulizer screening of TRPM8 agonists for sensations in the nasal cavity", "assay_type": "in vivo, human", "details": "NasoNeb nebulizer", "method": "Formulations for nebulization with NasoNeb® used a standard recipe of (Table 8): 1% of the active ingredient (1 to 10 mg/mL), 2% Tween 80 (Polysorbate 80), 1 to 5% ethanol, and made up to 100% with water. The mixture is centrifuged in a FlackTek, Inc., Speedmixer for at least 10 min at 3000 rpm. The Speedmixer spins the sample in 3 dimensions. The result is a white homogeneous liquid suspension with some of the solids now dissolved. For dosing, ˜2 to 3 mL is loaded into the canister of the nebulizer. The nebulizer nozzle tip is placed in the nostril and activated by pressing a button for 3 to 5 sec using a clock timer. […] For D-Ala-OiPr a 5-sec activation will deliver 2*0.73 mL*2 mg/ml, or a total dose of 3 mg per nose. The nasal cavity is relatively tolerant to exogenous agents with irritant properties, as many rinses are used for rhinitis and sinusitis. For some p-menthanecarboxamide analogs, a 2% (20 mg/mL) solution is possible and contemplated. An ideal agent reproduces a comfortable cooling or sensations of negative heat flux in the nasal cavity. […] Heat flux refers to the rate of heat transfer per unit area. The sinonasal cavity mucosa differs from philtrum skin and ocular margins in histology, so the choice of the right molecule must be made by experiment. The TRPM8 agonists were chosen for screening using a nebulizer for delivery. The NasoNeb system is powerful and effective for the OMC (FIG. 3). The delivery time per nostril in three to five seconds. […] These parameters were estimated in the initial trials: • Onset and offset of cooling sensations in the nasal cavity. • The intensity and quality of the cooling sensations in the nasal cavity. • Presence of effects such as sneezing or cough after dosing. • Degree of nasal stuffiness on a scale of 0 to 5. • Degree of rhinorrhea and phlegm in nasal secretions. • Questions regarding comfort and sleep at night."}, "TRPA1": {"molecular_target": "T2, TRPA1 (Homo sapiens, UniProt O75762)", "T2 construct": "expressed in transfected cells", "T2 sequence (O75762 whole entry, species assumed)": "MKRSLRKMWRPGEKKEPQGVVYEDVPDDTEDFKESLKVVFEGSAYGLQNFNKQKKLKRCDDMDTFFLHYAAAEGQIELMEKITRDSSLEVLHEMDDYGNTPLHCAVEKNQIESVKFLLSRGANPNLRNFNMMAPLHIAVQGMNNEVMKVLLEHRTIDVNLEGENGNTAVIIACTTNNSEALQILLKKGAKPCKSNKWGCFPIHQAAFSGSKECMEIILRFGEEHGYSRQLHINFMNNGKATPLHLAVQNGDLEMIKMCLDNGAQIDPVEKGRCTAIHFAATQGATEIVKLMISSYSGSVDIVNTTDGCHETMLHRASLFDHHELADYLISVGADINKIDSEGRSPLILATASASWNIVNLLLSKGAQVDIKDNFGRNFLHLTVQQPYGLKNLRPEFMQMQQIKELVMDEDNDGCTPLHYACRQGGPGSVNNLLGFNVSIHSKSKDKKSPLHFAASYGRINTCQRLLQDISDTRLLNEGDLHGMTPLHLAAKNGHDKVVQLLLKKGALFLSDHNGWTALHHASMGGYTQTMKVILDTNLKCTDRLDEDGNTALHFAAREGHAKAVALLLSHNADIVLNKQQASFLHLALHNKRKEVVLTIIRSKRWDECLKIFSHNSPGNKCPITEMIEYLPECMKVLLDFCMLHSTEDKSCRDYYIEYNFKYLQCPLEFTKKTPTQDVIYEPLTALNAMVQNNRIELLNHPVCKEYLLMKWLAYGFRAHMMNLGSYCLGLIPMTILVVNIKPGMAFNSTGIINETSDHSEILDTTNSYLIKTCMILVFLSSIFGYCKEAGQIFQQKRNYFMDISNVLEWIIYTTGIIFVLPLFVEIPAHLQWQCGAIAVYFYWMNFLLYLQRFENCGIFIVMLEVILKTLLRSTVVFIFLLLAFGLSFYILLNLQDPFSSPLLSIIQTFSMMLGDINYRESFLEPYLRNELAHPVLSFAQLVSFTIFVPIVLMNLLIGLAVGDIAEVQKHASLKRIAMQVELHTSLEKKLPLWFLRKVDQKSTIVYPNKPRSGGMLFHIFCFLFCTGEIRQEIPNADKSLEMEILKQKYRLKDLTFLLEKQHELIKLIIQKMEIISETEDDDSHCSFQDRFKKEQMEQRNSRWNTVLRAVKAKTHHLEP", "details": "Karashima et al., 2007; cited from earlier work"}, "ostiomeatal complex": {"test_system": "ostiomeatal complex", "experiment": "Case study 6: WS-12 nebulization for dry mouth of obstructed breathing", "assay_type": "in vivo, human", "description": "As hypersecretion of mucus was not the principal event, it was decided that a long-acting p-menthanecarboxamide, WS-12, might work well for the dry mouth. WS-12 was first discovered by the applicant to be a potent TRPM8 receptor agonist (Reynolds and Polakis, U.S. Pat. No. 7,893,072), and they supplied this reagent for testing and publications [see Bödding et al. (Cell Calcium. 42:618-28, 2007), and Sherkheli (J. Pharm. Pharmaceu. Sci. 13:242-53, 2010)]. WS-12 has weak cooling effects on the skin. WS-12 was later approved as a food additive (FEMA) for comestibles such as chewing gum. WS-12 is available online for about $USD 15 per 100 g. WS-12 was prepared at 10 mg/ml in 1% ethanol and 2% polysorbate 80 suspensions for a 5-see nebulization using the NasoNeb® apparatus in a volunteer subject and administered once before sleep.\nThe subject now uses the WS-12 on an occasional as-needed basis. The nasal polyps are still present upon endoscopic examination. The WS-12 chemical structure is ideal for use in obstructed breathing because it has an aryl moiety that increases lipophilicity (higher octanol-water partition coefficient). Lipophilicity increases retention in the nasal mucosa; thus, its action is long-lasting. […] Its actions are more gentle, with a mild coolness on the nasal surfaces. […]"}, "[3]": {"details": "see Table 8, Wei U.S. Pat. No. 8,258,320; cited from earlier work"}},
  "data": [
    {"smiles": "COc1ccc2c(c1)n(CCN)c(=O)n2C(=O)[C@@H]1C[C@H](C)CC[C@H]1C(C)C.Cl", "note": "[D-2363]", "values": [
      {"measurement": "Troponin plasma levels", "setting": "[1]", "value": "elevated troponin plasma levels"}
    ]},
    {"smiles": "CC(C)[C@@H]1CC[C@@H](C)C[C@H]1O", "note": "[l-menthol, (1R,2S,5R)-2-isopropyl-5-methyl-cyclohexanol [(−)-menthol], reference compound]", "values": [
      {"measurement": "MUC5AC secretion", "setting": "[2]", "value": "stimulates MUC5AC"},
      {"measurement": "Activity on TRPM8 transfected cells", "setting": "hTRPM8 channel", "value": "active"},
      {"measurement": "Cooling duration in the nasal cavity", "setting": "nasal cavity", "value": "~7", "unit": "min"},
      {"measurement": "Sensory effects after delivery into the nasal cavity", "setting": "nasal cavity; 3 to 5 sec per nostril", "value": "Strong cool, clear breathing. Eye irritant, causes rhinorrehea"},
      {"measurement": "Potency on TRPA1 compared with TRPM8", "setting": "TRPA1", "value": "interacts with TRPA1 at a greater potency than TRPM8"}
    ]},
    {"smiles": "COc1ccc(NC(=O)[C@@H]2C[C@H](C)CC[C@H]2C(C)C)cc1", "note": "[WS-12, (1R,2S,5R)-2-isopropyl-N-(4-methoxyphenyl)-5-methyl-cyclohexanecarboxamide]", "values": [
      {"measurement": "Effect on dry mouth symptoms", "setting": "ostiomeatal complex; WS-12 10 mg/ml in 1% ethanol and 2% polysorbate 80, 5-sec nebulization once before sleep", "value": "dry mouth symptoms disappeared after three days of use"},
      {"measurement": "Effect with manual spraying", "setting": "ostiomeatal complex; manual sprayer instead of electronically powered nebulizer", "value": "does not work well"},
      {"measurement": "Octanol/water partition coefficient among the p-menthanecarboxamides", "setting": "[3]", "value": "highest"}
    ]}
  ]
}
